# Source: EP0188538B1, “TRANSDERMAL DELIVERY OF AZATADINE” (priority 1984, dated 1986)
# Counter-ions that a name gives are not always drawn.
# System: not given
# Test: not given
# Details: pH 7.4
row,In Vitro Dermal Penetration,Structure (SMILES)
1,(+),"CN1CCC(=C2c3ccccc3CCc3cccnc32)CC1 [Azatadine, 6,11-diydro-11-(1-methyl-4-piperidylidene)-5H-benzo[5,6]cyclohepta[1,2-b]pyridine]"
2,(+),"CN(C)CCC(c1ccc(Cl)cc1)c1ccccn1 (stereo not shown) [Chlorpheniramine base (patch), Chlorpheniramine]"

# System: rabbits with intact skin
# Test: Screening of antihistamines for dermal irritation (24/72 hour screen, Draize grading)
# Details: 24/72 hour dermal irritation screen in rabbits with intact skin; formulation strength as given in the label
# From the text: The irritation results are reported as either irritating (+) or non-irritating (-), and the penetration results are reported as either good (+) or poor (-). […] Eight young adult New Zealand white rabbits were assigned to two groups. The rabbits were housed in stainless steel cages and maintained under standard laboratory conditions. Each cage was identified with a color coded label indicating the test substance, rabbit number, sex, and study number. Food and water were supplied ad libitum. On the day of dosing, the back of each rabbit was clipped free of hair. […] To prevent removal, the chambers were covered with an orthopedic stockinette and secured by a canvas coat.
row,Structure (SMILES),Rabbit Dermal Irritation
1,"CN(C)CCC(c1ccc(Cl)cc1)c1ccccn1 (stereo not shown) [Chlorpheniramine base (patch), Chlorpheniramine]",(+)
2,CN1CCC(=C2c3ccccc3C=Cc3ccccc32)CC1 [Cyprhoheptadine HCl],(+)
3,"CN(C)CC[C@@H](c1ccc(Cl)cc1)c1ccccn1 [Dexchlorpheniramine base, Dexchlorpheniramine]",(+)

# System: rabbits with intact skin
# Test: not given
# Details: in vivo
row,Structure (SMILES),Rabbit Dermal Irritation
1,CN(C)CCOC(c1ccc(Cl)cc1)c1ccccn1 (stereo not shown) [Carbinoxamine maleate],(+)
2,"CN(C)CC[C@@H](c1ccc(Br)cc1)c1ccccn1 [Dexbrompheniramine (10%), Dexbrompheniramine]",(+)
3,CC(C1=C(CCN(C)C)Cc2ccccc21)c1ccccn1 (stereo not shown) [Dimethindine maleate],(+)
4,CN1CCC(OC(c2ccccc2)c2ccccc2)CC1 [Diphenylpyraline HCl],(+)
5,CN(C)CCOC(C)(c1ccccc1)c1ccccn1 (stereo not shown) [Doxylamine succinate],(+)
6,CC(CN1c2ccccc2Sc2ccccc21)N(C)C (stereo not shown) [Promethazine HCl],(+)
7,Cc1ccc(/C(=C\CN2CCCC2)c2ccccn2)cc1 [Triprolidine HCl],(+)

# Same assay, conditions: rabbit, in vivo
row,Structure (SMILES),dermal irritation and/or sensitization
1,"CN1CCC(=C2c3ccccc3CCc3cccnc32)CC1 [Azatadine, 6,11-diydro-11-(1-methyl-4-piperidylidene)-5H-benzo[5,6]cyclohepta[1,2-b]pyridine]",no dermal irritation and/or sensitization
